Molecules are shown by their SMILES. Bounds are passed on as bounds.

The test system of one data set is LAMA-84. The experiment in a line: MTT cell viability assay, LAMA-84. In kind it is cell-based, human. The note with it: 72 h, ± standard deviation. Here is the method: (§1) Cell viability was determined using the MTT colorimetric assay. […] Statistical significance was determined at p ≤ 0.05.
In general terms: Tetrazolium assays rely on reduction of a dye to a coloured formazan, in cell work by metabolically active cells.

For a further data set, the system named is BV-173. As to the kind of experiment: MTT cell viability assay, BV-173. In kind it is cell-based, human. Conditions: 72 h, ± standard deviation. As to the method:
as §1

The test system of the next data set is K-562. As to the kind of experiment: MTT cell viability assay, K-562. In kind it is cell-based, human. Conditions: 72 h, ± standard deviation. Here is the method:
as §1

A further data set deals with AR-230. As to the kind of experiment: MTT cell viability assay, AR-230. It counts as cell-based, human. Conditions: 72 h, ± standard deviation. As to the method:
as §1

A further data set relates to CCL-1. The experiment in a line: MTT cell viability assay, normal fibroblasts CCL-1. In kind it is cell-based, murine. The note with it: 72 h, non-malignant fibroblasts, ± standard deviation. Here is the method:
as §1

Another data set relates to MDA-MB-231. Also noted: method as in doi:10.2533/chimia.2007.716. Conditions: hormone-independent breast cancer cells; cited from earlier work.
Data set [1] can be described thus: MTT cell viability assay, normal fibroblasts CCL-1. In kind it is cell-based, murine. Conditions: mouse, CCL-1 normal fibroblast cells, non-malignant fibroblasts, ± standard deviation. Here is the method: as §1

The IC50 is the midpoint of a concentration-inhibition curve. As to `Cc1ccc(NC(=O)c2ccc(CN3CCN(C)CC3)cc2)cc1Nc1nccc(-[c-]2cccc2)n1.[Fe+2].c1cc[cH-]c1` [Compound 6, N-(4-Methyl-3-((4-ferrocenylpyrimidin-2-yl)amino)phenyl)-4-((4-methylpiperazin-1-yl)methyl)benzamide], the IC50 in the data set with LAMA-84 came out at 25.4 ± 2.9 µM; in the data set on BV-173 it was 33.6 ± 2.1 µM; in the data set on K-562, 29.9 ± 3.1 µM; with AR-230, 5.9 ± 0.2 µM; with CCL-1 it was 55.7 ± 9.5 µM.
Take `Cc1cn(-c2cc(NC(=O)c3ccc(C)c(Nc4nccc(-[c-]5cccc5)n4)c3)cc(C(F)(F)F)c2)cn1.[Fe+2].c1cc[cH-]c1` [Compound 9, 4-Methyl-N-(3-(4-methyl-1H-imidazol-1-yl)-5-(trifluoromethyl)phenyl)-3-((4-ferrocenylpyrimidin-2-yl)amino)benzamide]: the IC50 was 25.4 ± 2.4 µM with LAMA-84; 33.6 ± 2.3 µM in the data set with BV-173; 25.9 ± 2.9 µM in the data set with K-562; 144 ± 10.6 µM in the data set with AR-230; greater than 200 µM with CCL-1.
On the same counts, the results for `Cc1ccc(NC(=O)[c-]2cccc2)cc1Nc1nccc(-c2cccnc2)n1.[Fe+2].c1cc[cH-]c1` [Compound 14, N-(4-Methyl-3-((4-(pyridin-3-yl)pyrimidin-2-yl)amino)phenyl)ferrocenecarboxamide] are 27.3 ± 1.8 µM, 17.9 ± 3.1 µM, greater than 200 µM, 5.1 ± 1.3 µM and greater than 200 µM.
On the same counts, the results for `Cc1ccc(C(=O)N[c-]2cccc2)cc1Nc1nccc(-c2cccnc2)n1.[Fe+2].c1cc[cH-]c1` [Compound 18, N-Ferrocenyl-4-methyl-3-((4-(pyridin-3-yl)pyrimidin-2-yl)amino)benzamide] are 26.8 ± 3.2 µM, 15.1 ± 2.9 µM, greater than 200 µM, 5.1 ± 0.9 µM and 60.2 ± 8.3 µM.
As to `CCC(=C(c1ccc(O)cc1)c1ccc(OCCCN(C)C)cc1)[c-]1cccc1.[Fe+2].c1cc[cH-]c1` [Hydroxy-ferrocifen], in the data set on MDA-MB-231, the IC50 was 0.5 µM.
Turning to `CC/C(=C(\c1ccc(O)cc1)c1ccc(OCCN(C)C)cc1)c1ccccc1` [Hydroxy-tamoxifen], the IC50 in the data set with MDA-MB-231 was 30 µM.
Molecule `Cc1ccc(NC(=O)c2ccc(CN3CCN(C)CC3)cc2)cc1Nc1nccc(-c2cccnc2)n1` [imatinib, reference compound] came in with a half-maximal inhibitory concentration (IC50) at 72 h in data set [1] greater than 200 µM.
